Earlier results in publication PMC7395068, “The evolution of strategies to minimise the risk of human drug-induced liver injury (DILI) in drug discovery and development” (Archives of Toxicology, 2020).
Where a name gives a salt, the structure may show the parent alone. Read-outs that look alike come from different tables or passages of the source.

Legend:
[1] = cited from earlier work
[2] = test system: human hepatocytes; details: cited from earlier work
[3] = test system: THLE or HepG2 cells, isolated mitochondria, BSEP; details: cited from earlier work
[4] = cited from earlier work; remark: listed apart in the source
[5] = human hepatocyte imaging, ref Xu 2008
[6] = assignment in Xu 2008, ref Xu 2008
[7] = binary in vivo human DILI call, ref Chen 2016
[8] = human DILI, LTKB DILIrank category, ref Chen 2016

Compound | DILI +VE (5-8), DILI -VE (-4) ([1]; ref Chen 2016) | DILI severity category ([1]; ref Chen 2016) | Structural based (HCI) ([2]; In vitro Assay, ref Xu 2008) | In vivo DILI ([4]; ref Xu 2008) | further results
NC(=O)c1ncn([C@@H]2O[C@H](CO)[C@@H](O)[C@H]2O)n1 [ribavirin] | -VE | Ambiguous DILI-concern | -VE | -VE | Partition Hybrid HRM Score ([3]; In vitro Assay, ref Aleo 2019): -VE; Ro2 Hybrid HRM Score ([3]; In vitro Assay, ref Aleo 2019): -VE
N[C@@H]1C[C@H]1c1ccccc1 (racemic) [tranylcypromine] | – | – | – | – | DILI +VE (5-8), DILI -VE (-4) ([1]; binary in vivo DILI call given beside the severity category, ref Chen 2016): +VE; DILI severity category ([1]; human DILI concern category (LTKB DILIrank), ref Chen 2016): vLess-DILI-Concern; Structural based (HCI), In vitro Assay [2, 5]: -VE; In vivo DILI [4, 6]: -VE
CC(=O)N(O)CCCCCNC(=O)CCC(=O)N(O)CCCCCNC(=O)CCC(=O)N(O)CCCCCN [deferoxamine] | +VE | vLess-DILI-Concern | +VE | +VE | Partition Hybrid HRM Score ([3]; In vitro Assay, ref Aleo 2019): +VE; Ro2 Hybrid HRM Score ([3]; In vitro Assay, ref Aleo 2019): +VE; In vivo DILI ([4]; ref Aleo 2019): +VE
CC[C@H]1OC(=O)[C@H](C)C(=O)[C@H](C)[C@@H](O[C@@H]2O[C@H](C)C[C@H](N(C)C)[C@H]2O)[C@](C)(OC)C[C@@H](C)C(=O)[C@H](C)[C@H]2N(CCCCn3cnc(-c4cccnc4)c3)C(=O)O[C@]12C [telithromycin] | +VE | vMost-DILI-Concern | +VE | +VE | Partition Hybrid HRM Score ([3]; In vitro Assay, ref Aleo 2019): +VE; Ro2 Hybrid HRM Score ([3]; In vitro Assay, ref Aleo 2019): +VE; In vivo DILI ([4]; ref Aleo 2019): +VE
CC[C@@H](CO)NC(=O)[C@@H]1C=C2c3cccc4c3c(cn4C)C[C@H]2N(C)C1 [methysergide maleate] | – | – | -VE | -VE | Partition Hybrid HRM Score [3]: -VE; Ro2 Hybrid HRM Score [3]: -VE; In vivo DILI ([4]; ref Aleo 2019): -VE
CN(C)CCCC1(c2ccc(F)cc2)OCc2cc(C#N)ccc21 (stereo not drawn) [citalopram] | – | – | – | – | DILI +VE (5-8), DILI -VE (-4) ([1]; in vivo): +VE; DILI severity category ([1]; in vivo): vLess-DILI-Concern; Structural based (HCI) [2]: -VE; In vivo DILI ([4]; in vivo): -VE
CN[C@H]1CC[C@@H](c2ccc(Cl)c(Cl)c2)c2ccccc21 [sertraline] | +VE | vLess-DILI-Concern | -VE | -VE | In vivo DILI ([4]; […]): -VE
Oc1ncnc2[nH]ncc12 [allopurinol] | +VE | vMost-DILI-Concern | +VE | +VE | Partition Hybrid HRM Score ([3]; In vitro Assay, ref Aleo 2019): +VE; Ro2 Hybrid HRM Score ([3]; In vitro Assay, ref Aleo 2019): -VE; In vivo DILI ([4]; […]): +VE; In vivo DILI ([4]; ref Aleo 2019): +VE
Cc1ccc(C)c(OCCCC(C)(C)C(=O)O)c1 [gemfibrozil] | +VE | vMost-DILI-Concern | +VE | +VE | –
CN(C)[C@@H]1C(O)=C(C(N)=O)C(=O)[C@@]2(O)C(O)=C3C(=O)c4c(O)ccc(Cl)c4[C@@H](O)[C@H]3C[C@@H]12 [demeclocycline] | – | – | -VE | +VE | DILI +VE (5-8), DILI -VE (-4) [1, 7]: -VE; DILI severity category [1, 8]: Ambiguous DILI-concern
NCC1(CC(=O)O)CCCCC1 [gabapentin] | +VE | vLess-DILI-Concern | -VE | -VE | In vivo DILI ([4]; ref Vorrink 2018): -VE
CC(=O)[C@]1(O)Cc2c(O)c3c(c(O)c2[C@@H](O[C@H]2C[C@H](N)[C@H](O)[C@H](C)O2)C1)C(=O)c1ccccc1C3=O [idarubicin] | – | – | – | – | DILI +VE (5-8), DILI -VE (-4) [1, 7]: -VE; DILI severity category [1, 8]: Ambiguous DILI-concern; Structural based (HCI), In vitro Assay [2, 5]: -VE; In vivo DILI [4, 6]: -VE
Nc1nc(Cl)nc2c1ncn2[C@H]1C[C@H](O)[C@@H](CO)O1 [cladribine] | -VE | Ambiguous DILI-concern | -VE | -VE | –
Nc1nc2nc[nH]c2c(=S)[nH]1 [thioguanine] | – | – | -VE | – | Partition Hybrid HRM Score ([3]; In vitro Assay, ref Aleo 2019): -VE; Ro2 Hybrid HRM Score ([3]; In vitro Assay, ref Aleo 2019): -VE
CC(COc1ccccc1)NC(C)C(O)c1ccc(O)cc1 (stereo not drawn) [isoxsuprine] | – | – | – | – | DILI +VE (5-8), DILI -VE (-4) ([1]; in vivo): -VE; DILI severity category ([1]; in vivo): vNo-DILI-Concern; Structural based (HCI), In vitro Assay [2]: -VE; In vivo DILI ([4]; in vivo): -VE
Cc1ncc([N+](=O)[O-])n1CCO [metronidazole] | – | – | +VE | – | Partition Hybrid HRM Score ([3]; In vitro Assay, ref Aleo 2019): -VE; Ro2 Hybrid HRM Score ([3]; In vitro Assay, ref Aleo 2019): -VE
C[C@H](CCC(=O)O)[C@H]1CC[C@H]2[C@@H]3[C@@H](O)C[C@@H]4C[C@H](O)CC[C@]4(C)[C@H]3CC[C@]12C [ursodeoxycholic acid] | -VE | Ambiguous DILI-concern | -VE | -VE | –
CC(=O)OCC(=O)[C@@]1(O)CC[C@H]2[C@@H]3CCC4=CC(=O)CC[C@]4(C)[C@@]3(F)[C@@H](O)C[C@@]21C [fludrocortisone acetate] | – | – | -VE | -VE | Partition Hybrid HRM Score ([3]; In vitro Assay, ref Aleo 2019): -VE; Ro2 Hybrid HRM Score ([3]; In vitro Assay, ref Aleo 2019): -VE; In vivo DILI ([4]; ref Aleo 2019): -VE

Compound | DILI +VE (5-8), DILI -VE (-4) ([1]; ref Chen 2016) | DILI severity category ([1]; ref Chen 2016) | Structural based (HCI) ([2]; In vitro Assay, ref Xu 2008) | In vivo DILI ([4]; ref Xu 2008) | further results
CN[C@@H](C)[C@@H](O)c1ccccc1 [pseudoephedrine] | – | – | – | – | DILI +VE (5-8), DILI -VE (-4) ([1]; in vivo): -VE; DILI severity category ([1]; in vivo): vNo-DILI-Concern; Structural based (HCI), In vitro Assay [2]: -VE; In vivo DILI ([4]; in vivo): -VE
COc1cc([C@@H]2c3cc4c(cc3[C@@H](O[C@@H]3O[C@@H]5CO[C@@H](C)O[C@H]5[C@H](O)[C@H]3O)[C@H]3COC(=O)[C@H]23)OCO4)cc(OC)c1O [etoposide] | +VE | vLess-DILI-Concern | -VE | +VE | In vivo DILI ([4]; […]): +VE; In vivo DILI ([4]; ref O'Brien 2006): +VE; In vivo DILI ([4]; ref Persson 2013): +VE; In vivo DILI ([4]; ref Tolosa 2012): +VE
CC(=O)S[C@@H]1CC2=CC(=O)CC[C@]2(C)[C@H]2CC[C@@]3(C)[C@@H](CC[C@@]34CCC(=O)O4)[C@H]12 [spironolactone] | +VE | vLess-DILI-Concern | +VE | +VE | –
C=C1CC[C@H](O)C/C1=C/C=C1\CCC[C@]2(C)[C@@H]([C@H](C)/C=C/[C@H](C)C(C)C)CC[C@@H]12 [ergocalciferol] | -VE | vNo-DILI-Concern | -VE | -VE | Partition Hybrid HRM Score ([3]; In vitro Assay, ref Aleo 2019): -VE; Ro2 Hybrid HRM Score ([3]; In vitro Assay, ref Aleo 2019): -VE; In vivo DILI ([4]; ref Aleo 2019): -VE
CN1C(=O)OC(C)(C)C1=O [trimethadione] | -VE | Ambiguous DILI-concern | -VE | +VE | –
bacitracin | -VE | vNo-DILI-Concern | -VE | -VE | –
CC(=O)OCC[N+](C)(C)C [acetylcholine chloride] | -VE | vNo-DILI-Concern | -VE | -VE | –
CN1CCC(=C2c3ccccc3C=Cc3ccccc32)CC1 [cyproheptadine] | +VE | vLess-DILI-Concern | +VE | +VE | –
CC(C)NCC(O)c1cc(O)cc(O)c1 (stereo not drawn) [metaproterenol sulfate] | – | – | -VE | – | Partition Hybrid HRM Score ([3]; In vitro Assay, ref Aleo 2019): -VE; Ro2 Hybrid HRM Score ([3]; In vitro Assay, ref Aleo 2019): -VE
C[C@]12CC[C@@H]3c4ccc(O)cc4CC[C@H]3[C@@H]1CC[C@@H]2O[C@@H]1O[C@H](C(=O)O)[C@@H](O)[C@H](O)[C@H]1O [estradiol 17b glucuronide] | – | – | – | – | Structural based (HCI) [2]: -VE; In vivo DILI ([4]; in vivo): +VE
O=c1[nH]c(=O)n([C@H]2C[C@H](O)[C@@H](CO)O2)cc1F [floxuridine] | – | – | -VE | +VE | In vivo DILI ([4]; […]): +VE
C[C@H]1C[C@H]2[C@@H]3CCC4=CC(=O)C=C[C@]4(C)[C@@]3(F)[C@@H](O)C[C@]2(C)[C@@]1(O)C(=O)CO [betamethasone] | – | – | -VE | -VE | –
CCO.C[C@H]1c2cccc(O)c2C(O)=C2C(=O)[C@]3(O)C(O)=C(C(N)=O)C(=O)[C@@H](N(C)C)[C@@H]3[C@@H](O)[C@@H]21.C[C@H]1c2cccc(O)c2C(O)=C2C(=O)[C@]3(O)C(O)=C(C(N)=O)C(=O)[C@@H](N(C)C)[C@@H]3[C@@H](O)[C@@H]21.Cl.Cl.O [doxycycline hyclate] | – | – | – | – | Structural based (HCI) [2]: +VE; In vivo DILI ([4]; in vivo): +VE
CC(Cc1ccc(O)cc1)NCC(O)c1cc(O)cc(O)c1 (stereo not drawn) [fenoterol hbr] | – | – | – | – | Structural based (HCI) [2]: -VE; In vivo DILI ([4]; in vivo): +VE
NS(=O)(=O)c1cc2c(cc1Cl)NCNS2(=O)=O [hydrochlorothiazide] | – | – | – | – | DILI +VE (5-8), DILI -VE (-4) ([1]; in vivo): +VE; DILI severity category ([1]; in vivo): vLess-DILI-Concern; Structural based (HCI) [2]: +VE; In vivo DILI ([4]; in vivo): +VE
CN/C(=N/CCSCc1nc[nH]c1C)NC#N [cimetidine] | +VE | vLess-DILI-Concern | -VE | -VE | In vivo DILI ([4]; […]): +VE
O=c1[nH]c(=O)n([C@H]2C[C@H](O)[C@@H](CO)O2)cc1I [idoxuridine] | – | – | – | – | Structural based (HCI), In vitro Assay [2, 5]: -VE; In vivo DILI [4, 6]: +VE
